# Source: patent US11730746B2, “17beta-heterocyclyl-digitalis like compounds for the treatment of heart failure” (priority 2018, dated 2023)
# Assays:
# [1] = target: T1, SERCA2a (Canis lupus familiaris, UniProt O46674); conditions: literature (Rocchetti 2005; Ferrandi 2013); cited from earlier work
# T1 construct: pre-incubated with 2 μg of microsomes; from tissue; host or cells: dog heart left ventricle, SR microsomes
# [2] = system: mouse (Albino Swiss CD-1); conditions: i.v., data from literature; cited from earlier work
# [3] = system: guinea pig; assay: Haemodynamics: inotropic and lethal dose in guinea pig; format: in vivo
# Description: Guinea-pigs (400-450 g) were anaesthetized with urethane (1.5 g/kg ip). A microtip pressure transducer was introduced into the left ventricle through the right carotid artery to measure ventricular pressure (LVP); the transducer was coupled with a transducer amplifier. Recordings were fed to a polygraph and analyzed. A polythene cannula was inserted into a jugular vein for drug infusion. After a stabilization period, the test substance was injected at the rate of 0.16 ml/min for 90 min (Micheletti R et al. J Pharmacol Exp Ther 2002; 303:592-600).
# The following parameters were obtained: heart rate (HR), left ventricular pressure (LVP), maximal velocity of pressure rise (+dP/dtmax) and decay (−dP/dtmax), ECG. For inotropy, the time elapsed until +dP/dtmax increased by 80% was identified in order to determine the ED80 (dose increasing basal +dP/dtmax by 80%). The time to the maximum increase in +dP/dtmax was also identified to determine the maximum effective dose, EDmax. Lusitropy was characterized by the dose inducing the maximum decrease in −dP/dtmax, (EDmax). As indexes of toxicity, the dose administered until the onset of arrhythmias and the dose inducing death (LD) were calculated. The safety ratio for the tested compound was also calculated as the ratio between LD and ED80.
# [4] = literature (Packer 2016, 2018); cited from earlier work
# [5] = target: T2, dog renal Na,K-ATPase (Canis lupus familiaris, UniProt P50997); assay: Inhibition of dog renal Na,K-ATPase activity (32P-ATP release); format: biochemical
# T2 construct: incubated with 0.3 μg of purified dog kidney enzyme; from tissue; host or cells: dog kidney outer medulla
# Description: Kidneys were sliced and the outer medulla was dissected, pooled and suspended (1 g/10 ml) in a sucrose-histidine solution, containing 250 mM sucrose, 30 mM histidine and 5 mM EDTA, pH 7.2 and homogenized. […] The pellet was suspended in the sucrose-histidine buffer and incubated for 20 min with a sodium-dodecyl-sulphate (SDS) solution dissolved in a gradient buffer, containing 25 mM imidazole and 1 mM EDTA, pH 7.5. […] The pellet was suspended in the gradient buffer.
# Increasing concentrations of the standard ouabain, or tested compound, were incubated with 0.3 μg of purified dog kidney enzyme for 10 min at 37° C. in 120 μl final volume of a medium, containing 140 mM NaCl, 3 mM MgCl2, 50 mM Hepes-Tris, 3 mM ATP, pH 7.5. […] The inhibitory activity was expressed as percent of the control samples carried out in the absence of ouabain or tested compound.
# [6] = system: STZ diabetic rats; assay: Haemodynamics in streptozotocin diabetic rats (echocardiography); format: in vivo, rat; conditions: 20 mg/kg os, after treatment, mean ± SD, n = 12
# Description: Sprague Dawley male rats (150-175 g) were made diabetic by a single injection into the tail vein of a solution of streptozotocin (STZ, 50 mg/kg, Sigma-Aldrich), freshly prepared in 0.1 M sodium citrate buffer, pH 4.5. Control rats received citrate buffer. Fasting glycaemia was measured after 1 week and rats with values >400 mg/dl were considered diabetic.
# Eight-nine weeks after STZ injection, rats were submitted to transthoracic echocardiographic and Doppler evaluation performed under pentobarbital anesthesia. Two-dimensionally guided M-mode recordings were used to obtain short-axis measurements of left ventricular end-diastolic diameter (LVEDD), left ventricular end-systolic diameter (LVESD), posterior (PW) and septal (SW) diastolic wall thickness according to the American Society of Echocardiography guidelines (Lang R M et al. Eur J Echocardiography 2006; 7:79-108). Fractional shortening was calculated as FS=(LVEDD-LVESD)/LVEDD. Relative wall thickness was calculated as PWTd+IVSTd/LVEDD.
# Mitral inflow was measured by pulsed Doppler at the tips of mitral leaflets from an apical 4-chamber view to obtain early and late filling velocities (E, A) and deceleration time of early filling velocity (DT). The deceleration slope was calculated as E/DT ratio. The mitral deceleration index was calculated as DT/E ratio.
# Tissue Doppler Imaging (TDI) was evaluated from the apical 4-chamber view to record septal mitral annular movements, i.e., peak myocardial systolic (s′) and early and late diastolic velocity (e′ and a′).
# Compound CVie 101 was orally administered to STZ injected rats at the dose of 20 mg/kg and echocardiographic parameters were measured after 1 h.
# T1 sequence (O46674 whole entry): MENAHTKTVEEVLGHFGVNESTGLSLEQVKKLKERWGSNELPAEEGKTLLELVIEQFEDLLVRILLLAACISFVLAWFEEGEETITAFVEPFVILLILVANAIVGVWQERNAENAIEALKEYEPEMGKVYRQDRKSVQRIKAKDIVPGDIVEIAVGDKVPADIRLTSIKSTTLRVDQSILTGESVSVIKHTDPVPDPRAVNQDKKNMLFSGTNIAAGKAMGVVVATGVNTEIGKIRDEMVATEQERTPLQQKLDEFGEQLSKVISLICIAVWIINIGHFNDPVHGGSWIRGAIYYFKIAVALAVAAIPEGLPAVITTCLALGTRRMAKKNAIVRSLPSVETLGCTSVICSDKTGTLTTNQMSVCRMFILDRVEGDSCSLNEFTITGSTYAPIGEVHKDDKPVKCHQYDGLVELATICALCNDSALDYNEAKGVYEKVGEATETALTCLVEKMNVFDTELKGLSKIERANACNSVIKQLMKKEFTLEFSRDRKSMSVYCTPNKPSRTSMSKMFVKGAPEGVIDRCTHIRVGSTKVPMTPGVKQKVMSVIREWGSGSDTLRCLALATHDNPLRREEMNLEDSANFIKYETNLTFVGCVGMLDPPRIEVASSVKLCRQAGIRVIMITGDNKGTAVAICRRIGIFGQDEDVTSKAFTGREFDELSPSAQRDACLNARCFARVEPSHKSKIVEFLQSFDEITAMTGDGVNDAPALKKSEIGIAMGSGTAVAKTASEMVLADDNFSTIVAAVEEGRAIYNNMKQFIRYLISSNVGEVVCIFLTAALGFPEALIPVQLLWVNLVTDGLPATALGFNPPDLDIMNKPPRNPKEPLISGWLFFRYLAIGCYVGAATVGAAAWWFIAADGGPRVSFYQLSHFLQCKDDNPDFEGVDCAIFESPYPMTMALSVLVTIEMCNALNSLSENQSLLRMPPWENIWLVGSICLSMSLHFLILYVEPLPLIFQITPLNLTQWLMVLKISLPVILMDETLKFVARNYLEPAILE
structure (smiles),measurement,setting,value
"C[C@H]1O[C@@H](O[C@H]2[C@@H](O)C[C@H](O[C@H]3[C@@H](O)C[C@H](O[C@H]4CC[C@@]5(C)[C@H](CC[C@@H]6[C@@H]5C[C@@H](O)[C@]5(C)[C@@H](C7=CC(=O)OC7)CC[C@]65O)C4)O[C@@H]3C)O[C@@H]2C)C[C@H](O)[C@@H]1O [Digoxin, reference compound]",SERCA2a activity,[1],failed to stimulate
same,LD50,[2],7.7 mg/kg
same,ED80,"[3]; guinea pig, in vivo",0.69 mg/kg
same,Lethal dose,[3]; i.v. infusion […],1.20 mg/kg
same,serum concentration ranges at which digoxin displays its beneficial effects,[4],0.5 to 0.7 ng/mL
same,"serum threshold level above which increased risk of death, mainly due to arrhythmias, has been observed",[4],0.9 ng/mL
same,IC50,[5],300 nM
same,A (late filling velocity of mitral inflow),[6],0.92 ± 0.1 m/s
same,A′ (TDI late relaxation velocity),[6],35.8 ± 5 cm/s
same,CO (cardiac output),[6],246.8 ± 72 mL/min
same,DT (deceleration time of E wave),[6],39.2 ± 9.34 ms
same,E (early filling velocity of mitral inflow),[6],1.02 ± 0.13 m/s
same,E/DT (deceleration slope),[6],27.9 ± 9.8 m/s2
same,E′ (TDI early relaxation velocity),[6],23.7 ± 1.35 cm/s
same,FS (fractional shortening),[6],47.2 ± 3.24 %
same,HR (heart rate),[6],308 ± 39 beat/min
same,SV (stroke volume),[6],0.80 ± 0.19 ml/beat
same,S′ (TDI contraction velocity),[6],26.7 ± 2.77 cm/s
